Assays:
Experiment in all cases: biochemical
[1] = target: T1, ACK (Homo sapiens, UniProt Q07912)
T1 construct: gene TNK2
Outline: (§1)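 Human kinases phosphorylating kinase-specific synthetic peptides, assayed by mobility shift (MSA) or IMAP fluorescence polarization, in 20 mM HEPES pH 7.5, 0.01% Triton X-100, 2 mM DTT with substrate/ATP-metal. Reactions ran 1 or 5 h at room temperature; activity = P/(P + S) from product and substrate peak heights.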

[2] = target: ALK (Homo sapiens, UniProt Q9UM73)
Outline: as §1

[3] = target: ALK(C1156Y) (Homo sapiens, UniProt Q9UM73, C1156Y)
Outline: as §1

[4] = target: AXL (Homo sapiens, UniProt P30530)
Chain of AXL (P30530 whole entry): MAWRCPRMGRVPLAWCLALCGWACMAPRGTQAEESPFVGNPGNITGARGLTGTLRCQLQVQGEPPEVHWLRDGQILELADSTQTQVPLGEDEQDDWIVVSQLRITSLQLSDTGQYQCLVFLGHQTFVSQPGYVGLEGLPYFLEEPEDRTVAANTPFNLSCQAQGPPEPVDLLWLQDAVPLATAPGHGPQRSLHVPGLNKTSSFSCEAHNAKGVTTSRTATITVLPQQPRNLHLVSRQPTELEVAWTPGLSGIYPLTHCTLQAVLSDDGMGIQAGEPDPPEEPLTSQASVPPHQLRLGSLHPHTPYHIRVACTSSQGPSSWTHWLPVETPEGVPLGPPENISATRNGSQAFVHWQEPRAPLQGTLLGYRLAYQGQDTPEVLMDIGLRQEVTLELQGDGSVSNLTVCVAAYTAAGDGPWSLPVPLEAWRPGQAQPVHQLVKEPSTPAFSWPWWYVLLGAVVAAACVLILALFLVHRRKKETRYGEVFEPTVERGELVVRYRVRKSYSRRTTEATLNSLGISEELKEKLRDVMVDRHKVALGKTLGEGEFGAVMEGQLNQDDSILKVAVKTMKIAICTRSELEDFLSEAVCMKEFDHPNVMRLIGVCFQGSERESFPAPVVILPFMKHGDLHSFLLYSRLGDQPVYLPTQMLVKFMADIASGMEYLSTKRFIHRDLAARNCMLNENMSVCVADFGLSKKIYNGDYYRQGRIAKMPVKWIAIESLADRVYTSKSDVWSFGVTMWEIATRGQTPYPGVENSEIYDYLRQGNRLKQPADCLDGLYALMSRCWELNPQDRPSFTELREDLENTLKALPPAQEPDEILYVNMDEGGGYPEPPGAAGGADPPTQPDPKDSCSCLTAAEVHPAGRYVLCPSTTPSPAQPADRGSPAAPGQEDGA
Outline: as §1

[5] = target: BRSK1 (Homo sapiens, UniProt Q8TDC3)
Chain of BRSK1 (Q8TDC3 whole entry): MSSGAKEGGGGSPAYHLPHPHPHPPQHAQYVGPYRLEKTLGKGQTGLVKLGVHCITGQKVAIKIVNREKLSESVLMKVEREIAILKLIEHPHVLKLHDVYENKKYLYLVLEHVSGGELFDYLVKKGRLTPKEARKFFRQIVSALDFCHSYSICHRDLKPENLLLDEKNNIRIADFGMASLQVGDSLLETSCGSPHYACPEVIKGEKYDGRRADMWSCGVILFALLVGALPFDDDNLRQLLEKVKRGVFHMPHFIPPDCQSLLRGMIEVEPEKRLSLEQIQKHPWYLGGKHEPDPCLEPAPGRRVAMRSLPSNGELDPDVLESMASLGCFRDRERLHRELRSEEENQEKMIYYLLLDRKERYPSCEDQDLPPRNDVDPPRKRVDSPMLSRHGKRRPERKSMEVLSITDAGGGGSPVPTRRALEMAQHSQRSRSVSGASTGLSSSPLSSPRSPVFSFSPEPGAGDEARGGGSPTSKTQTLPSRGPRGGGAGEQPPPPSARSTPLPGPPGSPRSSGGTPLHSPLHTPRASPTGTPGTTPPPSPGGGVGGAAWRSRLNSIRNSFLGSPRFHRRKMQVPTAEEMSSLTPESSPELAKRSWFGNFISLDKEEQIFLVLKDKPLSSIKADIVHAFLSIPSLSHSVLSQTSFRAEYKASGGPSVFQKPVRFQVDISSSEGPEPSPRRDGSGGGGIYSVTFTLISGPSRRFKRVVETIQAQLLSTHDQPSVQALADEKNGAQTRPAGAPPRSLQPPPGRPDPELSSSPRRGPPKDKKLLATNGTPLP
Outline: as §1

[6] = target: CDK3/CycE1 (Homo sapiens, UniProt Q00526)
Chain of CDK3/CycE1 (Q00526 whole entry): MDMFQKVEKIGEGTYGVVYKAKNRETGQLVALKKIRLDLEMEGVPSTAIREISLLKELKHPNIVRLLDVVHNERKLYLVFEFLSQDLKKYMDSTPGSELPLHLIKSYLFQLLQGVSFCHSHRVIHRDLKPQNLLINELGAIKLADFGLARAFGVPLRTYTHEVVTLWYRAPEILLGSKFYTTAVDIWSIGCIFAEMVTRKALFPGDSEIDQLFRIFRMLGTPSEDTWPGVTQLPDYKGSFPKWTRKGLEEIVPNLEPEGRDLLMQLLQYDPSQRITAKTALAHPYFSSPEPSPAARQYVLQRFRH
Chain of CDK3/CycE1 (P24864 whole entry partner): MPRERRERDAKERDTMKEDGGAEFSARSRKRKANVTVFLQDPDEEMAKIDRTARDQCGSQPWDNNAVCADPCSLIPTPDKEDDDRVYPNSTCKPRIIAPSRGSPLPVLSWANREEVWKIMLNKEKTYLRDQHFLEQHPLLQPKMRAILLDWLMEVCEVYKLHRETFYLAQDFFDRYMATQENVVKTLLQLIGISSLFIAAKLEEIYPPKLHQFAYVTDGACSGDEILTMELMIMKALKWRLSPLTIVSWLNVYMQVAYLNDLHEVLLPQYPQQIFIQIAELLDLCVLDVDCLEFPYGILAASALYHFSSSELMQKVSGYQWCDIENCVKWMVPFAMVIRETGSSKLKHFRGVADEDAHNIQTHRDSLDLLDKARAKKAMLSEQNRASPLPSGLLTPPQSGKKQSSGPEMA
Outline: as §1

[7] = target: T2, CDK5/p25 (Homo sapiens, UniProt Q00535)
T2 construct: p25
Outline: as §1

[8] = target: CDK6/CycD3 (Homo sapiens, UniProt Q00534)
Outline: as §1

[9] = target: T3, CHK1 (Homo sapiens, UniProt O14757)
T3 construct: gene CHEK1
T3 sequence (O14757 whole entry): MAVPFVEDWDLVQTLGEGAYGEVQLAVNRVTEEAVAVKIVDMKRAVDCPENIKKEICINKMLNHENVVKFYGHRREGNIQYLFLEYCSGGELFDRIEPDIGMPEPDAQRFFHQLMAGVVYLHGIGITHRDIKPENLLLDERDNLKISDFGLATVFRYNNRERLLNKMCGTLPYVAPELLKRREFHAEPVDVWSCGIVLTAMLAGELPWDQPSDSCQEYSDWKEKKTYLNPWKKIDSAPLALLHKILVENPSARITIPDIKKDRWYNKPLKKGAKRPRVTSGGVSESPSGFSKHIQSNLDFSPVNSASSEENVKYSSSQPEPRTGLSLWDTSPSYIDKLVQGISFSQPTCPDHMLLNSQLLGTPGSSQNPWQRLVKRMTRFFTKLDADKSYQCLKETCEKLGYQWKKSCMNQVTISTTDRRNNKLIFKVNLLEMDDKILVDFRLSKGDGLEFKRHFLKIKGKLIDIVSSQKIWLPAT
Outline: as §1

[10] = target: T4, CK2α2/β (Homo sapiens, UniProt P19784)
T4 construct: gene CSNK2A2
Outline: as §1

[11] = target: T5, CaMK2γ (Homo sapiens, UniProt Q13555)
T5 construct: gene CAMK2G
Outline: as §1

[12] = target: EPHA3 (Homo sapiens, UniProt P29320)
Outline: as §1

[13] = target: FGFR4(V550E) (Homo sapiens, UniProt P22455, V550E)
Outline: as §1

[14] = target: FGR (Homo sapiens, UniProt P09769)
Outline: as §1

[15] = target: FLT3 (Homo sapiens, UniProt P36888)
Outline: as §1

[16] = target: T6, IKKβ (Homo sapiens, UniProt O14920)
T6 construct: gene IKBKB
Outline: as §1

[17] = target: T7, JNK1 (Homo sapiens, UniProt P45983)
T7 construct: gene MAPK8
Outline: as §1

[18] = target: KIT(D816E) (Homo sapiens, UniProt P10721, D816E)
Chain of KIT(D816E) (P10721 whole entry D816E): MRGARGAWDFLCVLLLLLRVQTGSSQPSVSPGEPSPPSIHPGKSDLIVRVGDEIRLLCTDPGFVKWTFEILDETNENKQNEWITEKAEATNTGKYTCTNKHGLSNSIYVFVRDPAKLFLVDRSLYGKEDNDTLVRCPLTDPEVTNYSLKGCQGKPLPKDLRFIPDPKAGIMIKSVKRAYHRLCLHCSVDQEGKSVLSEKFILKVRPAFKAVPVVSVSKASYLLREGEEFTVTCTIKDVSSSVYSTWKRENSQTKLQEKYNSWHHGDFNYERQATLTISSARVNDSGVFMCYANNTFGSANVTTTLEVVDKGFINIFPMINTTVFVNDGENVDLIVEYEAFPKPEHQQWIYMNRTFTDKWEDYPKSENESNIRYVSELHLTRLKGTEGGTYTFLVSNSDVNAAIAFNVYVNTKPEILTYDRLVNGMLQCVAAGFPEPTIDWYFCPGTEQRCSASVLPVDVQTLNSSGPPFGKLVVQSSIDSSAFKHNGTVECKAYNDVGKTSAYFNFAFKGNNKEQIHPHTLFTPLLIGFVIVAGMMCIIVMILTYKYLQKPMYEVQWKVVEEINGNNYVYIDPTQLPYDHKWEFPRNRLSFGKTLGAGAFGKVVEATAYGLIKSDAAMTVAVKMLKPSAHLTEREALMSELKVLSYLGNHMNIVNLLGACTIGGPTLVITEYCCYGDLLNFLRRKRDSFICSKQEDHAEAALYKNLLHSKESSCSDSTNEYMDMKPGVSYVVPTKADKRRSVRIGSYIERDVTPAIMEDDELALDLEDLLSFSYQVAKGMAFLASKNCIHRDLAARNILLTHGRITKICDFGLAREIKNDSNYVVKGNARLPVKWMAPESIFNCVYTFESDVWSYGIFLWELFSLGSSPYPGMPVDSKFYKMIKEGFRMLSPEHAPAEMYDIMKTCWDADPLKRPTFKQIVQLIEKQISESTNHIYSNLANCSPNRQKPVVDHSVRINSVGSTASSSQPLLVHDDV
Outline: as §1

[19] = target: KIT(D816V) (Homo sapiens, UniProt P10721, D816V)
Outline: as §1

[20] = target: KIT(T670I) (Homo sapiens, UniProt P10721, T670I)
Outline: as §1

[21] = target: MAPKAPK2 (Homo sapiens, UniProt P49137)
Outline: as §1

[22] = target: MAPKAPK5 (Homo sapiens, UniProt Q8IW41)
Chain of MAPKAPK5 (Q8IW41 whole entry): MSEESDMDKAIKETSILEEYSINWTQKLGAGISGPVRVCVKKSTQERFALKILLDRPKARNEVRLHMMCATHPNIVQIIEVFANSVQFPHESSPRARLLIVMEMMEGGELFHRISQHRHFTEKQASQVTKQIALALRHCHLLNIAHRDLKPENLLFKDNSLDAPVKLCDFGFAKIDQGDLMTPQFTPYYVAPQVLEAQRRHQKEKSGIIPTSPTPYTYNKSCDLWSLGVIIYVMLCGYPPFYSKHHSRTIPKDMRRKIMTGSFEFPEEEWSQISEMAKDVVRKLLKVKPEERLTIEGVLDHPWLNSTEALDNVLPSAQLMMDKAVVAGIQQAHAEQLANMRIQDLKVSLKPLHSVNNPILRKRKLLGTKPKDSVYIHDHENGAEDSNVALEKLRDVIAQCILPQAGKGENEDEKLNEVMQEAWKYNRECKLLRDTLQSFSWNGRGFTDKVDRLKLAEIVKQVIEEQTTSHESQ
Outline: as §1

[23] = target: MELK (Homo sapiens, UniProt Q14680)
Outline: as §1

[24] = target: MET(M1250T) (Homo sapiens, UniProt P08581, M1250T)
Outline: as §1

[25] = target: MET(Y1235D) (Homo sapiens, UniProt P08581, Y1235D)
Outline: as §1

[26] = target: NuaK2 (Homo sapiens, UniProt Q9H093)
Outline: as §1

[27] = target: PHKG1 (Homo sapiens, UniProt Q16816)
Outline: as §1

[28] = target: T8, PKCθ (Homo sapiens, UniProt Q04759)
T8 construct: gene PRKCQ
T8 sequence (Q04759 whole entry): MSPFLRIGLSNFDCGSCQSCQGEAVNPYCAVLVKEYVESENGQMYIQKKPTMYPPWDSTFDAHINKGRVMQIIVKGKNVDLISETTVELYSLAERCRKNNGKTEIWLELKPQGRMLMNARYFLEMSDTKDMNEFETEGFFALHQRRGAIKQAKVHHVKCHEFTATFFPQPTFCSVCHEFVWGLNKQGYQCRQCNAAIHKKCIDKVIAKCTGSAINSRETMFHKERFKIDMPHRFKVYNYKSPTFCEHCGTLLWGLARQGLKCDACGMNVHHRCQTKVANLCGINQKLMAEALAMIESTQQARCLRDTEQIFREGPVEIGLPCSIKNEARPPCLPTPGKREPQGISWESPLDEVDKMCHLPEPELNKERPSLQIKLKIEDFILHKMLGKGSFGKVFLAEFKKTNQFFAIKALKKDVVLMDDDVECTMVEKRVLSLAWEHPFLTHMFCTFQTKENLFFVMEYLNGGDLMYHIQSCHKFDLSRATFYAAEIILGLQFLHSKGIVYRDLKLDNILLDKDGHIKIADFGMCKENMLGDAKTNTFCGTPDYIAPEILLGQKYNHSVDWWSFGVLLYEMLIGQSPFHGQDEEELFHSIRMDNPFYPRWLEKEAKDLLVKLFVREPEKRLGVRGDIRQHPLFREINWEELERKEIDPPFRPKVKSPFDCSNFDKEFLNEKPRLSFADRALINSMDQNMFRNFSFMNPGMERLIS
Outline: as §1

[29] = target: SGK2 (Homo sapiens, UniProt Q9HBY8)
Outline: as §1

[30] = target: T9, TSSK1 (Homo sapiens, UniProt Q9BXA7)
T9 construct: gene TSSK1B
Outline: as §1

In the case of c1cc(-c2ccc3[nH]ncc3c2)ccn1 [TG693, 5-(4-pyridinyl)-1H-indazole], the inhibition at 1 µM [1] is reported as -1.1%, the inhibition at 1 µM [2] is reported as 6.1% and the inhibition at 1 µM [3] is reported as 0.1%. It also gave an inhibition at 1 µM [4] of 3.5%, an inhibition at 1 µM [5] of 1.1% and an inhibition at 1 µM [6] of 11.4%. It also gave an inhibition at 1 µM [7] of 21.8%, an inhibition at 1 µM [8] of 9.1% and an inhibition at 1 µM [9] of 1.7%. It also gave an inhibition at 1 µM [10] of 14.6%, an inhibition at 1 µM [11] of -2.4% and an inhibition at 1 µM [12] of 0.4%. It also gave an inhibition at 1 µM [13] of -4.1%, an inhibition at 1 µM [14] of -5.9% and an inhibition at 1 µM [15] of 17.5%. For the same compound, the inhibition at 1 µM [16] was 14.6%, the inhibition at 1 µM [17] was -18% and the inhibition at 1 µM [18] was -6.8%. For the same compound, the inhibition at 1 µM [19] was -1.1%, the inhibition at 1 µM [20] was -0.7% and the inhibition at 1 µM [21] was -26%. The inhibition at 1 µM [22] was 2.6%, the inhibition at 1 µM [23] was 5.7% and the inhibition at 1 µM [24] was -0.8%. The inhibition at 1 µM [25] was -2%, the inhibition at 1 µM [26] was 0.4% and the inhibition at 1 µM [27] was 0%. For the same compound, the inhibition at 1 µM [28] was -12.6%, the inhibition at 1 µM [29] was -5.4% and the inhibition at 1 µM [30] was 3%.

— publication PMC5448077, “Development of an orally available inhibitor of CLK1 for skipping a mutated dystrophin exon in Duchenne muscular dystrophy” (Scientific Reports, 2017)
